Source: patent US20230043863A1, “HETEROAROMATIC DERIVATIVES FOR USE AS REGULATOR, PREPARATION METHOD THEREFOR AND USE THEREOF” (JIANGSU HANSOH PHARMACEUTICAL GROUP CO., LTD., priority 2018, published 2023)

Experiments:
TYK2 = TYK2 (Homo sapiens, UniProt P29597); assay: JAK kinase activity inhibition, TR-FRET (TYK2); type: biochemical; details: TR-FRET kinase assay
Description: (§1) Experimental objective: The objective of this test is to test the inhibitory effect of the compound on JAK kinase activity.
(§2) Experimental method: the fluorescence resonance energy transfer (TR-FRET) method was used to test the inhibitory effect of the compound on JAK kinase activity, and the half inhibitory concentration IC50 of the compound on JAK kinase activity was obtained.
(§3) Kinase reaction was carried out in a white 384-well plate (PerkinElmer). 1-5 μL of different concentrations of the compound diluted with DMSO and ddH2O was added into each well, and 1-5 μL of the corresponding solvent was added to the positive control wells, followed by addition of 0.1-20 nM JAK kinase solution diluted with 1-5 μL of kinase buffer (HEPES 50-250 mM, MgCl2 5-20 mM, etc.) was added to each well. 1-5 μL of kinase buffer was added to the negative control well. 1-5 μL of substrate mixture containing peptide substrate and ATP was added. The plate was incubated at room temperature for 0.5-5 hours. […], EDTA and detection solution containing labeled antibody was added, and then the plate was incubated at room temperature for another 1-24 hours. The fluorescence signal value at about 620 nm and 665 nm of each well was measured by BioTek Synergy H1 plate reader, and the inhibition rate was calculated by the fluorescence signal value. According to the inhibition rate of different concentrations, the IC50 of the compound was obtained by curve fitting.
(§4) The percentage inhibition data of the wells treated with the compound was calculated with the positive control wells (DMSO control wells) and negative control wells (no kinase added) on the plate {% inhibition rate=100-[(test compound value-negative control value)]/(Positive control value-negative control value)×100}. IC50 value was calculated by using GraphPad prism to fit the data of different concentrations and corresponding percentage inhibition rates to a 4-parameter non-linear logic formula.

JAK1 = JAK1 (Homo sapiens, UniProt P23458); assay: JAK kinase activity inhibition, TR-FRET (JAK1); type: biochemical; details: TR-FRET kinase assay
Description: as §1, §2, §3, §4

JAK1, sequence (P23458 whole entry): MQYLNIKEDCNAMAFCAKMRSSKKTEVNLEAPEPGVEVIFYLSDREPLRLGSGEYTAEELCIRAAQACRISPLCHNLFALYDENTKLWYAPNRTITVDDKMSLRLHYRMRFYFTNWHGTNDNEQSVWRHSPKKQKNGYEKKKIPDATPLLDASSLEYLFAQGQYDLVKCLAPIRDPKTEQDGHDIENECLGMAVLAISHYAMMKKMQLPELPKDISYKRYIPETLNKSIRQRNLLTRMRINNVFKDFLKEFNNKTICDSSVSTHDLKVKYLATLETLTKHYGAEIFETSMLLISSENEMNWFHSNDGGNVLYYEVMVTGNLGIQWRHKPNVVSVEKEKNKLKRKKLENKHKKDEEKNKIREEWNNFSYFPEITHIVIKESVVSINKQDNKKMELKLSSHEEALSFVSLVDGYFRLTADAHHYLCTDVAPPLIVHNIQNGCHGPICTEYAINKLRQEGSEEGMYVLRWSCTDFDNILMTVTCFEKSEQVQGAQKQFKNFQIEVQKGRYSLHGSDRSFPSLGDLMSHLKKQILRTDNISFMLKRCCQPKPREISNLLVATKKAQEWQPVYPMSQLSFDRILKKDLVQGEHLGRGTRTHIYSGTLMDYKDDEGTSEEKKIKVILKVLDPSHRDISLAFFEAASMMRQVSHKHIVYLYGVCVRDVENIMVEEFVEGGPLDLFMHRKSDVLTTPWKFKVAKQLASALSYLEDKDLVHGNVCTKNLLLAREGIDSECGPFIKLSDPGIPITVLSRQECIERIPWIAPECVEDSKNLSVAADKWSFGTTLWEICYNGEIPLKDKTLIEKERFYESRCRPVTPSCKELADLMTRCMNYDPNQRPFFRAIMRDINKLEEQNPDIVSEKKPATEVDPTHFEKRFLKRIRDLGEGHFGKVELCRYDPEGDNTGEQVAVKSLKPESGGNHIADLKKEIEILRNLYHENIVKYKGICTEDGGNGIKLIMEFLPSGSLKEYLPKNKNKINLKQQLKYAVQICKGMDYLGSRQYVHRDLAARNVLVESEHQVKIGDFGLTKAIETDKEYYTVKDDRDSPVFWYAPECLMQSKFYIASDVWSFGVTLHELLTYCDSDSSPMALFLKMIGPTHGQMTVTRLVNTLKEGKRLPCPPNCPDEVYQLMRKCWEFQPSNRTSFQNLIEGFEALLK
TYK2, sequence (P29597 whole entry): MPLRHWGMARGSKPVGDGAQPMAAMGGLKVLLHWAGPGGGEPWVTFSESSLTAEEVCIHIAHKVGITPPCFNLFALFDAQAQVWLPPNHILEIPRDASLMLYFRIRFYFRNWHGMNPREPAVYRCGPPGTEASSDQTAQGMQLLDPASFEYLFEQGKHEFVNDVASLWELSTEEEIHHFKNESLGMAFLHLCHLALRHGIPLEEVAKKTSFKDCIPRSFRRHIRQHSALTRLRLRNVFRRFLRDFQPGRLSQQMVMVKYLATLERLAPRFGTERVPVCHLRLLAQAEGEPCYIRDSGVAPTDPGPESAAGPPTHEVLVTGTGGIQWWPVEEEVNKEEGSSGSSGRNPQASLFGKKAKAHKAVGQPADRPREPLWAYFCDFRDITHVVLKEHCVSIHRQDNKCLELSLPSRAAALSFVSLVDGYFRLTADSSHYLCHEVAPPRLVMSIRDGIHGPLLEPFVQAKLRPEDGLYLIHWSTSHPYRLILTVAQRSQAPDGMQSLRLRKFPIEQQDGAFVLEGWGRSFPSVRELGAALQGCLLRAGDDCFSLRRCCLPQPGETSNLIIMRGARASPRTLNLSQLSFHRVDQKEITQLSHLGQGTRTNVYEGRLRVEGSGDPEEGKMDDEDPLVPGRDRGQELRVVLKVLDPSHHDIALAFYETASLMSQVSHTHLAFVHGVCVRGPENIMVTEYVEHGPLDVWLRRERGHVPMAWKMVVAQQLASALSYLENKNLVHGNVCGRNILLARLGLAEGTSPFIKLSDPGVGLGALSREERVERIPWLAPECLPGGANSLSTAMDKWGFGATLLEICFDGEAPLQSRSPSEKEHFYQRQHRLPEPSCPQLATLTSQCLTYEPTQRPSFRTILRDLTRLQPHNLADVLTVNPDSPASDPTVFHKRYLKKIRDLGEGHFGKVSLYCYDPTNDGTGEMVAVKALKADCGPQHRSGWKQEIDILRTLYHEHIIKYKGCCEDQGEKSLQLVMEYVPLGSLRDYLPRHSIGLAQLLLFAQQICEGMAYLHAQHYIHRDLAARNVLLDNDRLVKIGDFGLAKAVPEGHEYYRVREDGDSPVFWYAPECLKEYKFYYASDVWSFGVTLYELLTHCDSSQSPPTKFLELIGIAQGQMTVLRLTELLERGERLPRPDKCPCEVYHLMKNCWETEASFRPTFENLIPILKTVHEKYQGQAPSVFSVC

Row | Compound | IC50 (TYK2) [nM] | IC50 (JAK1) [nM]
1 | Cc1cc(Nc2nc(N[C@@H]3C[C@H]4CC[C@@H](C3)N4CCC#N)c3cccnc3n2)n[nH]1 [Embodiment 90, 3-((3-exo)-3-((2-((5-methyl-1H-pyrazol-3-yl)amino)pyrido[2,3-d]pyrimidin-4-yl)amino)-8-azabicyclo[3.2.1]oct-8-yl)propionitrile] | 21.6 | 7.23
2 | N#CCCN1[C@@H]2CC[C@H]1C[C@H](Nc1nc(Nc3ncc(C#N)s3)cc3ncccc13)C2 [Embodiment 160, 2-((5-(((3-exo)-8-(2-cyanoethyl)-8-azabicyclo[3.2.1]oct-3-yl)amino)-1,6-diazanaphthalen-7-yl)amino)thiazol-5-formonitrile] | 6.15 | 11.7
3 | N#CCCN1[C@@H]2CC[C@H]1C[C@H](Nc1nc(Nc3ncc(CCO)s3)cc3ncccc13)C2 [Embodiment 161, 3-((3-exo)-3-((7-((5-(2-hydroxylethyl)thiazol-2-yl)amino)-1,6-diazanaphthalen-5-yl)amino)-8-azabicyclo[3.2.1]oct-8-yl)propionitrile] | 35 | 20.8
4 | O=C(CN1CCCC1)N1[C@@H]2CCC[C@H]1C[C@H](Nc1nc(Nc3ncc(CO)s3)cc3ncccc13)C2 [Embodiment 164, 1-((3-exo)-3-((7-((5-(hydroxymethyl)thiazol-2-yl)amino)-1,6-diazanaphthalen-5-yl)amino)-9-azabicyclo[3.3.1]non-9-yl)-2-(pyrrolidin-1-yl)ethane-1-one] | 16.6 | 0.85
5 | O=C(CN1CCCCC1)N1[C@@H]2CC[C@H]1C[C@H](Nc1nc(Nc3ncc(CO)s3)cc3ncccc13)C2 [Embodiment 165, 1-((3-exo)-3-((7-((5-(hydroxymethyl)thiazol-2-yl)amino)-1,6-diazanaphthalen-5-yl)amino)-8-azabicyclo[3.2.1]oct-8-yl)-2-(piperidin-1-yl)ethane-1-one] | > 100 | 4.92
6 | Cc1cc(Nc2nc(N[C@@H]3C[C@H]4CC[C@@H](C3)N4CCC#N)nc3c(C)cccc23)n[nH]1 [Embodiment 176, 3-((3-exo)-3-((8-methyl-4-((5-methyl-1H-pyrazol-3-yl)amino)quinazolin-2-yl)amino)-8-azabicyclo[3.2.1]oct-8-yl)propionitrile] | 2.36 | 4.18
7 | Cc1cc(Nc2nc(N[C@@H]3C[C@H]4CC[C@@H](C3)N4CCC#N)nc3cc(-c4ccncc4)ccc23)n[nH]1 [Embodiment 180, 3-((3-exo)-3-((4-((5-methyl-1H-pyrazol-3-yl)amino)-7-(pyridin-4-yl)quinazolin-2-yl)amino)-8-azabicyclo[3.2.1]oct-8-yl)propionitrile] | 0.56 | 0.35
8 | COc1cncc(-c2ccc3c(Nc4cc(C)[nH]n4)nc(N[C@@H]4C[C@H]5CC[C@@H](C4)N5CCC#N)nc3c2)c1 [Embodiment 182] | 0.25 | 0.37
9 | Cc1cc(Nc2nc(N[C@@H]3C[C@H]4CC[C@@H](C3)N4CCC#N)nc3cc(-c4ccccc4)ccc23)n[nH]1 [Embodiment 184, 3-((3-exo)-3-((4-((5-methyl-1H-pyrazol-3-yl)amino)-7-phenylquinazolin-2-yl)amino)-8-azabicyclo[3.2.1]oct-8-yl)propionitrile] | 0.48 | 0.14
10 | Cc1cc(Nc2nc(N[C@@H]3C[C@H]4CC[C@@H](C3)N4CCC#N)nc3cc(-c4cnn(C5CC5)c4)ccc23)n[nH]1 [Embodiment 185, 3-((3-exo)-3-((7-(1-cyclopropyl-1H-pyrazol-4-yl)-4-((5-methyl-1H-pyrazol-3-yl)amino)quinazolin-2-yl)amino)-8-azabicyclo[3.2.1]oct-8-yl)propionitrile] | 0.6 | 0.29
11 | Cc1cc(Nc2nc(N[C@@H]3C[C@H]4CC[C@@H](C3)N4S(=O)(=O)N3CC(C#N)C3)nc3cc(C4CC4)ccc23)n[nH]1 [Embodiment 216, 1-(((3-exo)-3-((7-cyclopropyl-4-((5-methyl-1H-pyrazol-3-yl)amino)quinazolin-2-yl)amino)-8-azabicyclo[3.2.1]oct-8-yl)sulfonyl)azetindin-3-formonitrile] | 0.48 | 0.04
12 | Cc1cnc(Nc2nc(N[C@@H]3C[C@H]4CC[C@@H](C3)N4S(=O)(=O)N3CC(C#N)C3)nc3ccccc23)s1 [Embodiment 221, 1-(((3-exo)-3-((4-((5-methylthioazole-2-yl)amino)quinazolin-2-yl)amino)-8-azabicyclo[3.2.1]oct-8-yl)sulfonyl)azetindin-3-formonitrile] | 1.26 | 0.79
13 | Cc1cc(Nc2nc(N[C@@H]3C[C@H]4CC[C@@H](C3)N4C(=O)CN(C)C)nc3ccccc23)n[nH]1 [Embodiment 225, 2-(dimethylamine)-1-((3-exo)-3-((4-((5-methyl-1H-pyrazol-3-yl)amino)quinazolin-2-yl)amino)-8-azabicyclo[3.2.1]oct-8-yl)ethane-1-one] | 0.94 | 9.16
14 | Cc1cc(Nc2nc(N[C@@H]3C[C@H]4CC[C@@H](C3)N4C(=O)c3cccnc3)nc3ccccc23)n[nH]1 [Embodiment 227, ((3-exo)-3-((4-((5-methyl-1H-pyrazol-3-yl)amino)quinazolin-2-yl)amino)-8-azabicyclo[3.2.1]oct-8-yl)(pyridin-3-yl)methanone] | 4.77 | 5.17
15 | Cc1cc(Nc2nc(N[C@@H]3C[C@H]4CC[C@@H](C3)N4C(=O)C(F)F)nc3ccccc23)n[nH]1 [Embodiment 231, 2,2-difluoro-1-((3-exo)-3-((4-((5-methyl-1H-pyrazol-3-yl)amino)quinazolin-2-yl)amino)-8-azabicyclo[3.2.1]oct-8-yl)ethane-1-one] | 3.78 | 11.3
16 | Cc1cc(Nc2nc(N[C@@H]3C[C@H]4CC[C@@H](C3)N4S(=O)(=O)c3cccnc3)nc3ccccc23)n[nH]1 [Embodiment 232] | 2 | 7.2

More lines, now with the values ahead:

Row | IC50 (TYK2) [nM] | IC50 (JAK1) [nM] | Compound
17 | 0.15 | 0.65 | Cc1cc(Nc2nc(N[C@@H]3C[C@H]4CC[C@@H](C3)N4CCC#N)nc3ncccc23)n[nH]1 [Embodiment 89, 3-((3-exo)-3-((4-((5-methyl-1H-pyrazol-3-yl)amino)pyrido[2,3-d]pyrimidin-2-yl)amino)-8-azabicyclo[3.2.1]oct-8-yl)propionitrile]
18 | 42.8 | > 100 | Cc1cc(Nc2nc(N[C@@H]3C[C@H]4CC[C@@H](C3)N4CCC#N)nc3cccc(Cl)c23)n[nH]1 [Embodiment 175, 3-((3-exo)-3-((5-chloro-4-((5-methyl-1H-pyrazol-3-yl)amino)quinazolin-2-yl)amino)-8-azabicyclo[3.2.1]oct-8-yl)propionitrile]
19 | 1.58 | 3.36 | Cc1cc(Nc2nc(N[C@@H]3C[C@H]4CC[C@@H](C3)N4CCC#N)nc3c(Cl)cccc23)n[nH]1 [Embodiment 177, 3-((3-exo)-3-((8-chloro-4-((5-methyl-1H-pyrazol-3-yl)amino)quinazolin-2-yl)amino)-8-azabicyclo[3.2.1]oct-8-yl)propionitrile]
20 | > 100 | 10.6 | Cc1cc(Nc2nc(N[C@@H]3C[C@H]4CC[C@@H](C3)N4CCC#N)nc3ccc(Cl)cc23)n[nH]1 [Embodiment 178, 3-((3-exo)-3-((6-chloro-4-((5-methyl-1H-pyrazol-3-yl)amino)quinazolin-2-yl)amino)-8-azabicyclo[3.2.1]oct-8-yl)propionitrile]
21 | 0.1 | 0.18 | COc1ccc(-c2ccc3c(Nc4cc(C)[nH]n4)nc(N[C@@H]4C[C@H]5CC[C@@H](C4)N5CCC#N)nc3c2)cn1 [Embodiment 183, 3-((3-exo)-3-((7-(6-methoxylpyridin-3-yl)-4-((5-methyl-1H-pyrazol-3-yl)amino)quinazolin-2-yl)amino)-8-azabicyclo[3.2.1]oct-8-yl)propionitrile]
22 | 0.19 | 0.23 | Cc1cc(Nc2nc(N[C@@H]3C[C@H]4CC[C@@H](C3)N4CCC#N)nc3cc(-n4ccnc4)ccc23)n[nH]1 [Embodiment 203, 3-((3-exo)-3-((7-(1H-imidazol-1-yl)-4-((5-methyl-1H-pyrazol-3-yl)amino)quinazolin-2-yl)amino)-8-azabicyclo[3.2.1]oct-8-yl)propionitrile]
23 | > 100 | 1.76 | Cc1cc(Nc2nc(N[C@@H]3C[C@H]4CC[C@@H](C3)N4C(=O)CN(C)C)nc3cc(Cl)ccc23)n[nH]1 [Embodiment 224]
24 | 0.3 | 13.1 | Cc1cc(Nc2nc(N[C@@H]3C[C@H]4CC[C@@H](C3)N4C(=O)c3ccccn3)nc3ccccc23)n[nH]1 [Embodiment 226, ((3-exo)-3-((4-((5-methyl-1H-pyrazol-3-yl)amino)quinazolin-2-yl)amino)-8-azabicyclo[3.2.1]oct-8-yl)(pyridin-2-yl)methanone]
25 | 9.99 | 2.63 | Cc1cc(Nc2nc(N[C@@H]3C[C@H]4CC[C@@H](C3)N4C(=O)c3ccncc3)nc3ccccc23)n[nH]1 [Embodiment 228, ((3-exo)-3-((4-((5-methyl-1H-pyrazol-3-yl)amino)quinazolin-2-yl)amino)-8-azabicyclo[3.2.1]oct-8-yl)(pyridin-4-yl)methanone]
